As usually defined, the IC50 is the midpoint of a concentration-inhibition curve.

One test addresses T1, P2X3 (UniProt P56373).
T1 sequence (P56373 1-397): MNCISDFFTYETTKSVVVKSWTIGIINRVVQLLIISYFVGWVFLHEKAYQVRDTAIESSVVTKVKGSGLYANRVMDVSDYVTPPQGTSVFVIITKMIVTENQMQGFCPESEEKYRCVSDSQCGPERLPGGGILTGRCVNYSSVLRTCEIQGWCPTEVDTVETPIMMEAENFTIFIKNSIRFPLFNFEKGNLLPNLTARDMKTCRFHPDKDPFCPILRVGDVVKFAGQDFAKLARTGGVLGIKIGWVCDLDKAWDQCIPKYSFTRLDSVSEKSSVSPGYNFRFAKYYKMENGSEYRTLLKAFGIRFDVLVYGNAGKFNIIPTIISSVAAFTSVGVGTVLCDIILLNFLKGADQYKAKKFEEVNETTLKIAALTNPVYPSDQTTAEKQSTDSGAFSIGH
The experiment in a line: P2X3 FLIPR intracellular calcium assay. The test is classed as cell-based. The note with it: agonist at EC75, species (human or rat) not given. The method in brief:
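Human P2X3-HEK, human P2X2/3-TRex293, rat P2X2/3-TRex293 or rat P2X3 TRex-CHO cells loaded with Calcium 4 dye (1.8 mM probenecid, pH 7.4).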
Background: A change in cytosolic calcium serves as a functional read-out for many receptors and channels.

For test [1], the system named is formalin-induced hind limb flinching. The experiment in a line: Formalin induced pain (Automated Nociception Analyzer test). The class given is in vivo. Conditions: rat, 100 mg/kg oral gavage, 30 min before footpad formalin. How it is done: FIG. 3 illustrates the antinociceptive effects of the compound of example 22 in a rat model of ongoing spontaneous pain. The compound of example 22 was administered by oral gavage at a dose of 100 mg/kg followed 30 min later by a footpad injection of a dilute formalin solution. Formalin elicits a typical biphasic nociceptive response that manifests as spontaneous hind limb flinches which are counted and binned over 5 min epochs. […] Male Sprague Dawley rats of young adult age group and body weight range of 200-250 g were included in the study. Animals were housed under a 12 h light/dark cycle with food and water ad libitum. Animals were acclimatized in the observation chambers of Automated Nociception Analyzer (ANA) for 45-60 min, twice daily for two days prior to the study day. On the day of the study, metal bands were glued to the plantar surface of the right hind paw of each animal enrolled in the study set and kept in plastic observation chambers for 10-15 min. […] […] count data for each animal was recorded from 1 to 60 min post formalin injection, using ANA motion analysis software. The study was analyzed in 2 phases, the early phase extended from 0-10 min and second phase extended from 11-60 min post formalin injection. […]

Regarding `CCc1cnnn1-c1cc(C(=O)NCc2ccc(C)nc2)cn2c(-c3ccc(C)s3)cnc12` [Example 22], the IC50 on P2X3 is 1 to 100 nM. For the same compound, the “second phase flinching response to formalin” value in test [1] is recorded as “attenuated the second phase flinching response to formalin”. In the case of `C[C@H](NC(=O)c1cc(-n2nncc2C(F)F)c2ncc(-c3ccc(Cl)s3)n2c1)c1nnc[nH]1` [Example 38], the IC50 on P2X3 lay within 1 to 100 nM. Take `CC[C@H](NC(=O)c1cc(-n2nncc2C(F)F)c2ncc(-c3ccc(C)s3)n2c1)c1nnc[nH]1` [Example 52]: the IC50 at P2X3 was 1 to 100 nM.

Source of the values: US10316039B2, “P2X3 and/or P2X2/3 compounds and methods” (Asana Biosciences, LLC, priority 2013, dated 2019).
